Reference: US9850283B2, “Macrocyclic inhibitors of the PD-1/PD-L1 and CD80(B7-1)/PD-L1 protein/protein interactions” (BRISTOL-MYERS SQUIBB COMPANY, priority 2013, dated 2017)
Positions of bridges follow the written chain, without caps; N, C: chain ends. Non-standard residues stand in square brackets, D forms with d. Residues, ends and D or L forms follow the SMILES beside them. Phe(4-CF3) = N[C@@H](Cc1ccc(C(F)(F)F)cc1)C(=O)O; Phe(3,5-F2) = N[C@@H](Cc1cc(F)cc(F)c1)C(=O)O; Phe(4-CH2NH2) = NCc1ccc(C[C@H](N)C(=O)O)cc1; Phe(4-NH2) = Nc1ccc(C[C@H](N)C(=O)O)cc1; Phe(4-Me) = Cc1ccc(C[C@H](N)C(=O)O)cc1; Bta = N[C@@H](Cc1csc2ccccc12)C(=O)O; NMeF = CN[C@@H](Cc1ccccc1)C(=O)O; NMeNle = CCCC[C@H](NC)C(=O)O; Sar = CNCC(=O)O

How the values were obtained:
[1] = molecular target: T1, LK35.2-hPD-L1 cells / PE-labeled PD-1-Ig (Homo sapiens, UniProt Q9NZQ7); assay: LK35.2-hPD-L1 cell binding high-content screening assay; assay type: cell-based; settings: cluster symbol; cell line of CBA not given (LK35.2-hPD-L1 or 293T-hPD-L1); read-out: CBA IC50 cluster
T1 construct: expressed in transfected cells; host or cells: LK35.2 mouse B cell line
Summary of the method: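 Readout: high-content imaging of PE-PD-1-Ig bound to LK35.2-hPD-L1 cells. Cells plated overnight (RPMI/10% FCS); compound + 1 nM PE-PD-1-Ig, 1 h, 37 °C; 3× dPBS wash before imaging.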

Human PD-L1/PD-1 = molecular target: T2, Human PD-L1/PD-1 (Homo sapiens, UniProt Q9NZQ7); assay: HTRF PD-1-Ig/PD-L1-His binding assay (human PD-L1); settings: cluster symbol; read-out: HTRF IC50 cluster
T2 construct: made in house; host or cells: HEK293T
Summary of the method: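 Steps: truncated PD-1-Ig and PD-L1-His fusions are incubated in dPBS containing 0.1% (w/v) BSA and 0.05% (v/v) Tween-20. Detection antibodies are then added (Eu cryptate anti-Ig at 1 nM final, APC anti-His at 20 nM final), and time-resolved FRET is measured.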

T2 sequence (Q9NZQ7 with tags, fused parts or gaps): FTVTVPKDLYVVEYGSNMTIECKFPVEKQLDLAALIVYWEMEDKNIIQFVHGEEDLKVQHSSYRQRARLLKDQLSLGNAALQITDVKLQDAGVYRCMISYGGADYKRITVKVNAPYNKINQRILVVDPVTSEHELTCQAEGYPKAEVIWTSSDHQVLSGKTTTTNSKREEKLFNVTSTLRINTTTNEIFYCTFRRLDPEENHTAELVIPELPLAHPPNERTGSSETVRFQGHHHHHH
T1 sequence (Q9NZQ7 19-290): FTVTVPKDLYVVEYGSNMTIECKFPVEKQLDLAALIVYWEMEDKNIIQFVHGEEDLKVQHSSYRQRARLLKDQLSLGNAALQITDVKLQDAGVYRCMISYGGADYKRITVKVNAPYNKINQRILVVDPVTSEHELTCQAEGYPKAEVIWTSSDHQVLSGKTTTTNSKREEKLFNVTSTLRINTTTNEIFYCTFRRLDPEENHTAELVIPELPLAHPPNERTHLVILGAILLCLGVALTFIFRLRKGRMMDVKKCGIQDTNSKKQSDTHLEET

| SMILES | IC50 [1] | IC50 (Human PD-L1/PD-1) |
| --- | --- | --- |
| CCCC[C@H]1C(=O)N(C)CC(=O)N[C@@H](CC(=O)O)C(=O)N[C@@H](C(C)C)C(=O)N[C@@H](Cc2ccc(C)cc2)C(=O)N[C@@H](Cc2ccc(O)cc2)C(=O)N(C)CC(=O)N[C@@H](Cc2c[nH]c3ccccc23)C(=O)N[C@@H](Cc2ccc(O)cc2)C(=O)N[C@@H](CC(C)C)C(=O)N[C@H](C(=O)NCC(N)=O)CSCC(=O)N[C@@H](Cc2ccccc2)C(=O)N(C)[C@@H](Cc2ccccc2)C(=O)N1C [Example 3135] ({CH2CO}-F[NMeF][NMeNle][Sar]DV[Phe(4-Me)]Y[Sar]WYLCG-NH2; thioether N-13) | > 74.3 nM | > 30.5 nM |
| CC(C)C[C@@H]1NC(=O)[C@H](Cc2ccc(O)cc2)NC(=O)[C@H](Cc2c[nH]c3ccccc23)NC(=O)CN(C)C(=O)[C@H](Cc2ccc(O)cc2)NC(=O)[C@H](Cc2ccccc2)N(C)C(=O)[C@H](C(C)C)NC(=O)[C@H](CC(=O)O)NC(=O)CN(C)C(=O)[C@H](CC(C)C)N(C)C(=O)[C@H](Cc2ccccc2)N(C)C(=O)[C@H](Cc2ccccc2)NC(=O)CSC[C@@H](C(=O)NCC(N)=O)NC1=O [Example 3136] (HELM PEPTIDE1{[O=C(C[*:3])[*:2]].F.[meF].[meL].[Sar].D.V.[meF].Y.[Sar].W.Y.L.C.G.[am]}$PEPTIDE1,PEPTIDE1,1:R3-14:R3$$$V2.0) | 4.78 to 72.9 nM | 6.76 to 30.3 nM |
| CCCC[C@H]1C(=O)N(C)CC(=O)N[C@@H](CC(=O)O)C(=O)N[C@@H](C(C)C)C(=O)N(C)[C@@H](Cc2ccccc2)C(=O)N[C@@H](Cc2ccc(O)cc2)C(=O)N(C)CC(=O)N[C@@H](Cc2c[nH]c3ccccc23)C(=O)N[C@@H](Cc2ccc(C(F)(F)F)cc2)C(=O)N[C@@H](CC(C)C)C(=O)N[C@H](C(=O)NCC(N)=O)CSCC(=O)N[C@@H](Cc2ccccc2)C(=O)N(C)[C@@H](Cc2ccccc2)C(=O)N1C [Example 3138] ({CH2CO}-F[NMeF][NMeNle][Sar]DV[NMeF]Y[Sar]W[Phe(4-CF3)]LCG-NH2; thioether N-13) | > 74.3 nM | > 30.5 nM |
| CCCC[C@H]1C(=O)N(C)CC(=O)N[C@@H](CC(=O)O)C(=O)N[C@@H](C(C)C)C(=O)N(C)[C@@H](Cc2ccccc2)C(=O)N[C@@H](Cc2ccc(N)cc2)C(=O)N(C)CC(=O)N[C@@H](Cc2c[nH]c3ccccc23)C(=O)N[C@@H](Cc2ccc(O)cc2)C(=O)N[C@@H](CC(C)C)C(=O)N[C@H](C(=O)NCC(N)=O)CSCC(=O)N[C@@H](Cc2ccccc2)C(=O)N(C)[C@@H](Cc2ccccc2)C(=O)N1C [Example 3139] ({CH2CO}-F[NMeF][NMeNle][Sar]DV[NMeF][Phe(4-NH2)][Sar]WYLCG-NH2; thioether N-13) | 4.78 to 72.9 nM | 6.76 to 30.3 nM |
| CCCC[C@H]1C(=O)N(C)CC(=O)N[C@@H](CC(=O)O)C(=O)N[C@@H](C(C)C)C(=O)N(C)[C@@H](Cc2ccccc2)C(=O)N[C@@H](Cc2ccc(O)cc2)C(=O)N(C)CC(=O)N[C@@H](Cc2c[nH]c3ccccc23)C(=O)N[C@@H](Cc2ccc(N)cc2)C(=O)N[C@@H](CC(C)C)C(=O)N[C@H](C(=O)NCC(N)=O)CSCC(=O)N[C@@H](Cc2ccccc2)C(=O)N(C)[C@@H](Cc2ccccc2)C(=O)N1C [Example 3140] ({CH2CO}-F[NMeF][NMeNle][Sar]DV[NMeF]Y[Sar]W[Phe(4-NH2)]LCG-NH2; thioether N-13) | 4.78 to 72.9 nM | 6.76 to 30.3 nM |
| CCCC[C@H]1C(=O)N(C)CC(=O)N[C@@H](CC(=O)O)C(=O)N[C@@H](C(C)C)C(=O)N(C)[C@@H](Cc2ccccc2)C(=O)N[C@@H](Cc2ccc(CN)cc2)C(=O)N(C)CC(=O)N[C@@H](Cc2csc3ccccc23)C(=O)N[C@@H](Cc2ccc(O)cc2)C(=O)N[C@@H](CC(C)C)C(=O)N[C@H](C(=O)NCC(N)=O)CSCC(=O)N[C@@H](Cc2ccccc2)C(=O)N(C)[C@@H](Cc2ccccc2)C(=O)N1C [Example 3141] ({CH2CO}-F[NMeF][NMeNle][Sar]DV[NMeF][Phe(4-CH2NH2)][Sar][Bta]YLCG-NH2; thioether N-13) | 4.78 to 72.9 nM | 6.76 to 30.3 nM |
| CC[C@H](C)[C@H]1C(=O)N(C)CC(=O)N[C@@H](CC(=O)O)C(=O)N[C@@H](C(C)C)C(=O)N(C)[C@@H](Cc2ccccc2)C(=O)N[C@@H](Cc2ccc(O)cc2)C(=O)N(C)CC(=O)N[C@@H](Cc2c[nH]c3ccccc23)C(=O)N[C@@H](Cc2ccc(O)cc2)C(=O)N[C@@H](CC(C)C)C(=O)N[C@H](C(=O)NCC(N)=O)CSCC(=O)N[C@@H](Cc2ccccc2)C(=O)N(C)[C@@H](Cc2ccccc2)C(=O)N1C [Example 3142] (HELM PEPTIDE1{[O=C(C[*:3])[*:2]].F.[meF].[meI].[Sar].D.V.[meF].Y.[Sar].W.Y.L.C.G.[am]}$PEPTIDE1,PEPTIDE1,1:R3-14:R3$$$V2.0) | 4.78 to 72.9 nM | 6.76 to 30.3 nM |
| CCCC[C@H]1C(=O)N(C)CC(=O)N[C@@H](CC(=O)O)C(=O)N[C@@H](C(C)C)C(=O)N(C)[C@@H](Cc2ccccc2)C(=O)N[C@@H](Cc2ccc(O)cc2)C(=O)N(C)CC(=O)N[C@@H](Cc2c[nH]c3ccccc23)C(=O)N[C@@H](Cc2ccc(O)cc2)C(=O)N[C@@H](CC(C)C)C(=O)N[C@H](C(=O)NCC(N)=O)CSCC(=O)N[C@@H](Cc2cc(F)cc(F)c2)C(=O)N(C)[C@@H](Cc2ccccc2)C(=O)N1C [Example 3143] ({CH2CO}-[Phe(3,5-F2)][NMeF][NMeNle][Sar]DV[NMeF]Y[Sar]WYLCG-NH2; thioether N-13) | 0.158 to 4.71 nM | 6.76 to 30.3 nM |
